Our source for the IC50 values is patent US7872005B2, “2-substituted heteroaryl compounds” (Synta Pharmaceuticals Corporation, priority 2004, dated 2011).

The subject of the assay is IL-12 production in human PBMC or THP-1 cells. Briefly: In vitro inhibition of IL-12 production in stimulated human PBMC or THP-1 cells (ELISA). Format: cell-based. As to conditions: representative in vitro IC50 data. From the text:
The biological activities of a heterocyclic compound can be evaluated by a number of cell-based assays. One of such assays can be conducted using cells from human peripheral blood mononuclear cells (PBMC) or human monocytic cell line (THP-1). The cells are stimulated with a combination of human interferon-γ (IFNγ) and lipopolysaccharide or a combination of IFNγ and Staphylococcus aureus Cowan I in the presence of a test compound. The level of inhibition of IL-12 production can be measured by determining the amount of p70 by using a sandwich ELISA assay with anti-human IL-12 antibodies. IC50 of the test compound can then be determined. Specifically, PBMC or THP-1 cells are incubated with the test compound. Cell viability was assessed using the bioreduction of MTS [3-(4,5-dimethylthiazol-2-yl)-5-(3-carboxymethoxyphenyl)-2-(4-sulfophenyl)-2H-tetrazolium] (Promega, Madison, Wis.).
Reagents. Staphylococcus aureus Cowan I (SAC) was obtained from Calbiochem (La Jolla, Calif.), and lipopolysaccharide (LPS, Serratia marscencens) was obtained from Sigma (St. Louis, Mo.). Human and mouse recombinant IFNγ were purchased from Boehringer Mannheim (Mannheim, Germany) and Pharmingen (San Diego, Calif.), respectively.
Human In Vitro Assay. Human PBMC were isolated by centrifugation using Ficoll-Paque (Pharmacia Biotech, Uppsala, Sweden) and prepared in RPMI medium supplemented with 10% fetal calf serum (FCS), 100 U/mL penicillin, and 100 μg/mL streptomycin. PBMC were plated in wells of a 96-well plate at a concentration of 5×10^5 cells/well, and primed by adding IFNγ (30 U/mL) for 22 h and stimulated by adding LPS (1 μg/mL), or by adding IFNγ (100 U/mL) and then stimulated by adding SAC (0.01%). A test pyrimidine compound was dissolved in DMSO, and added to wells of the 96-well plate. The final DMSO concentration was adjusted to 0.25% in all cultures, including the compound-free control. Human THP-1 cells were plated in wells, primed by adding IFNγ (100 U/mL) for 22 h and stimulated by adding SAC (0.025%) in the presence of different concentrations of the pyrimidine compound. Cell-free supernatants were taken 18 h later for measurement of cytokines. Cell viability was assessed using the bioreduction of MTS. Cell survival was estimated by determining the ratio of the absorbance in compound-treated groups versus compound-free control.
The supernatant was assayed for the amount of IL-12p40, IL-12p70, or IL-10 by using a sandwich ELISA with anti-human antibodies, i.e., a Human IL-12 p40 ELISA kit from R&D Systems (Berkeley, Calif.), and a Human IL-12 p70 or IL-10 ELISA kit from Endogen (Cambridge, Mass.). Assays were based on the manufacturer's instructions.
The biological activities of pyrimidine compounds were tested on human PBMC or THP-1 cells. Unexpectedly, some of the test compounds have IC50 values as low as <1 nM.

The term IC50 denotes the concentration that gives 50% inhibition. `Cc1cccc(/C=N/Nc2cc(N3CCOCC3)nc(CCOC(=O)Nc3cccc(C(F)(F)F)c3)n2)c1` [Compound 12, (3-Trifluoromethyl-phenyl)-carbamic acid 2-{4-[N′-(3-methyl-benzylidene)-hydrazino]-6-morpholin-4-yl-pyrimidin-2-yl}-ethyl ester]: the IC50 was less than 25 nM.
